The source of these data is patent US20090123373A1, “AMYLOID-IMAGING AGENTS” (priority 2007, published 2009).

As a reminder, the Ki is a dissociation constant, usually derived from enzyme kinetics or from competition with a known ligand. In general, logP refers to a log measure of how a compound divides between an organic and an aqueous phase. Read a high logP as a more lipophilic compound.

The target in data set [1] is β-amyloid (AD brain homogenates) (Homo sapiens, UniProt P05067). Nature of the data set: Competitive binding assay with [3H]PIB in AD brain homogenates. The procedure:
Binding was assayed in 12×75 mm borosilicate glass tubes. […] The resulting mixture was incubated at 37° C. for 1 h, and the bound and free radioligands were separated by rapid vacuum filtration through Whatman GF/B glass filter paper using a Brandel M-24R cell harvest and rapidly washed three times at room temperature with PBS. The filters containing the bound radioactivity were transferred to special vials containing 3 ml of universal scintillation fluid. Vials were counted using Beckman LS6500 multi-purpose scintillation counter. Specific binding was estimated as the difference between total and nonspecific binding. Under the assay conditions, the specifically bound fraction was less than 15% of the total radioactivity. The results were subjected to nonlinear regression analysis using software GraphPad Prism by which Kd and Ki values were calculated.
The postmortem brain tissues were obtained from well-defined AD patients. The gray matter was then carefully separated from white matter at autopsy and kept in −70° C. The fresh frozen gray matter was then homogenized by milling it thoroughly in a mortar in the presence of liquid nitrogen. The homogenates were then prepared in phosphate-buffered saline (PBS, pH 7.4) at a concentration of approximately 400 mg tissue/ml, aliquoted into 1-ml portions, and stored
According to the in vitro binding assays, functional groups have moderate effects on the binding affinity. […] In addition, methylation of the amino group increased the binding affinity.

Data set [2] can be described thus: Brain uptake in normal mice after iv injection. The following applies: for Brain uptake in mice, 2 min. / Brain uptake in mice, 30 min. / Brain uptake in mice, 60 min.: n = 3, iv tail vein, 0.185 MBq; for Brain uptake in mice, 2 min.: 2 min postinjection; for Brain uptake in mice, 30 min.: 30 min postinjection; for Brain uptake in mice, 60 min.: 60 min postinjection. Type of data set: in vivo, mice (Swiss-Webster). The procedure:
The radiolabeled ligand [^125I] 18 eluted from C-18 Sep-Pak™ plus cartridge was dissolved in a mixture consisting of saline (2 ml, 9 mg/ml), ethylene glycol (2 ml), ethanol (0.7 ml), and HCl (0.3 ml, […]). Under anesthesia, 0.1 ml of the above solution containing 0.185 MBq of radioactive tracer was administered to the mice through a tail vein injection (Swiss-Webster, n=3, 2 months old). The mice were then sacrificed by a heart puncture at 2, 30, and 60 min postinjection. The brain was rapidly removed, weighed, and counted. The uptake of brain was expressed as percentage of injection dose per gram.
For potential in vivo imaging studies, we radiolabeled compound […] with ^125I for brain uptake studies. Following a single iv injection of [^125I] 18 ([…], 0.185 MBq), the brain permeability was evaluated in normal mice. The brain radioactivity concentration of [^125I] 18 was determined at 2, 30, and 60 min postinjection. […] The initial brain uptake was 3.71±0.63% ID/g at 2 min postinjection, a level that is considered for potential clinical imaging studies. The brain radioactivity concentration decreased sharply to 0.78±0.14% ID/g at 30 min and 0.43±0.12% ID/g at 60 min, with a 2-to-30 min ratio of 5. […] 18 was just as low as it rapidly clears from the normal mouse brain in the absence of amyloid deposits.

Data set [3] can be described thus: Storage stability of the radioligand. The class given is physicochemical. The procedure: 20-30% after HPLC purification. [^125I] 18 was obtained with a radiochemical purity over 98% and a specific activity near the theoretical limit (80 TBq/mmol) based on the no-carrier added sodium [^125I] iodide. The radiochemical identity of [^125I] 18 was verified by co-elution with the non-radioactive cold standard 18 on HPLC profiles. [^125I] 18 was stable enough to be kept for up to 8 h at room temperature and for up to 2 months in the refrigerator.

The nature of data set [4]: Partition coefficient determination (n-octanol/PBS). Type of data set: physicochemical. The following applies: n-octanol / PBS 0.1 M pH 7.4, room temperature, triplicate. The procedure:
Partition coefficients were measured by mixing [^125I] 18 (10 μl, RCP>98%, approximately 50,0000 cpm) with sodium phosphate buffer (PBS, 3 g, 0.1 M, pH 7.4) and
n-octanol (3 g, 3.65 ml) in test tubes. The tubes were vortexed for 3 min (1 min 3×) at room temperature followed by centrifugation at 3500 rpm for 5 min. Then 1 ml of buffer and 1 ml of n-octanol were taken out, weighed, and counted. The partition coefficient was determined by calculating the ratio of cpm/g of n-octanol to that of PBS and expressed as logP oct=log [cpm/g (n-octanol)/cpm/g(PBS)]. Another 2 ml from the rest of n-octanol layer was taken out and repartitioned in a tube previously containing 3 g PBS and 1.65 ml of n-octanol until consistent partitions of the coefficient values were obtained. All assays were performed in triplicate.
Based on the conventional octanol-water partition measurement, the lipophilicity of [^125I] 18 was determined in terms of partition coefficients (logP oct). The logP oct of [^125I] 18 was found at 2.70 and the logP oct values of other dibenzothiazole derivatives were then estimated based on coefficients determined by Hansch and Leo (A substituent Constants for Correlation Analysis in Chemistry and Biology (1979) 1st ed.).

Chain of β-amyloid (AD brain homogenates) (P05067 672-711 limits assumed): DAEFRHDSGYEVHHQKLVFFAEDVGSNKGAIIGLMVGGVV

For `CN(C)c1ccc(-c2nc3ccc(-c4nc5ccc(F)cc5s4)cc3s2)cc1` [Compound 17, [4-(6-fluoro-[2,60]dibenzothiazolyl-20-yl)-phenyl]-dimethylamine], the Ki in data set [1] lay in the range of 6.8 to 36 nM.
On the same count and under the same terms, under `CNc1ccc(-c2nc3ccc(-c4nc5ccc(F)cc5s4)cc3s2)cc1` [Compound 16, [4-(6-fluoro-[2,60]dibenzothiazolyl-20-yl)-phenyl]-methylamine] stands 6.8 to 36 nM; under `CNc1ccc(-c2nc3ccc(-c4nc5ccccc5s4)cc3s2)cc1` [Compound 14], 6.8 to 36 nM.
As to `Nc1ccc(-c2nc3ccc(-c4nc5ccccc5s4)cc3s2)cc1[125I]` [[^125I]18, 4-[2,6′]dibenzothiazolyl-2′-yl-2-^125I-phenylamine], in data set [2] (iv), the “2-to-30 min ratio of brain radioactivity concentration” value is given as 5. In data set [2], the “Brain uptake in mice, 2 min.” value worked out at 3.71 ± 0.63 % ID/g; the “Brain uptake in mice, 30 min.” value is listed as 0.78 ± 0.14 % ID/g; the “Brain uptake in mice, 60 min.” value amounted to 0.43 ± 0.12 % ID/g. In data set [2] (listed as [^125I] 18), the “Brain uptake in mice, 2 min.” value stood at 3.71±0.63 % ID/g; the “Brain uptake in mice, 30 min.” value came out at 0.78±0.14 % ID/g; the “Brain uptake in mice, 60 min.” value was 0.43±0.12 % ID/g. Also, the “Stability, time it can be kept” value in data set [3] (in the refrigerator) was “up to 2 months”. Further, in data set [3] (room temperature), the “Stability, time it can be kept” value is recorded as “up to 8 h”. For the same molecule, the logP in data set [4] stood at 2.7.
In turn, `Nc1ccc(-c2nc3ccc(-c4nc5ccc(F)cc5s4)cc3s2)cc1` [Compound 12] showed a Ki in data set [1] of 6.8 to 36 nM.
Same read-out and setting: then `Nc1ccc(-c2nc3ccc(-c4nc5ccccc5s4)cc3s2)cc1` [Compound 10], with 6.8 to 36 nM; and `COc1ccc2nc(-c3ccc4nc(-c5ccc(N)cc5)sc4c3)sc2c1` [Compound 13], with 6.8 to 36 nM.
Take `Nc1ccc(-c2nc3ccc(-c4nc5ccccc5s4)cc3s2)cc1I` [Compound 18, 4-[2,6′]dibenzothiazolyl-2′-yl-2-iodo-phenylamine]: the Ki in data set [1] fell in the range of 6.8 to 36 nM.
Still for that read-out and setting: then `Nc1ccc(-c2nc3ccc(-c4nc5ccc(Cl)cc5s4)cc3s2)cc1` [Compound 11], with 6.8 to 36 nM; and `CNc1ccc(-c2nc3ccc(-c4nc5ccc(Cl)cc5s4)cc3s2)cc1` [Compound 15], with 6.8 to 36 nM.
